# Experimental data reported in patent EP4332093A1, “SALT CONTAINING PIPERAZINE POLYCYCLIC DERIVATIVE, CRYSTAL FORM THEREOF, PREPARATION METHOD THEREFOR, AND USE THEREOF” (Shanghai Hansoh Biomedical Co., Ltd., priority 2021, dated 2022).
# What was measured:
# dopamine D3 receptor = biological target: T1, dopamine D3 receptor (Homo sapiens, UniProt P35462); assay: Radioligand binding assay, dopamine D3 receptor ([3H]-methylspiperone); conditions: Human Dopamine D3 Receptor membrane, [3H]-methylspiperone 0.5 nM
# T1 construct: purchased PerkinElmer ES-173-M400UA
# T1 sequence (P35462 whole entry): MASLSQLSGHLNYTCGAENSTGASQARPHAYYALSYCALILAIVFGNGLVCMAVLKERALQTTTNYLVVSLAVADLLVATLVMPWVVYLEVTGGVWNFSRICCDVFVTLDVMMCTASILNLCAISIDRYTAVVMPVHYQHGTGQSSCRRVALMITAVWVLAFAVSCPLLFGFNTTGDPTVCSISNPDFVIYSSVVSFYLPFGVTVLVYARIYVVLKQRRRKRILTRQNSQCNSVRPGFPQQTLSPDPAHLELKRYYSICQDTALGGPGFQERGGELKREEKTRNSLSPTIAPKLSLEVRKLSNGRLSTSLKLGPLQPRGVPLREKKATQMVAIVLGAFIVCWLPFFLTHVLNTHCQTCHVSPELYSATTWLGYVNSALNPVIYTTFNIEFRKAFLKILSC
# 5-HT2A receptor = 5-HT2A receptor (Homo sapiens, UniProt P28223); assay: Radioligand binding assay, 5-HT2A receptor ([3H]-Ketanserin); parameters: purchased PerkinElmer; conditions: Human 5-HT2A Receptor membrane, [3H]-Ketanserin 2 nM; read-out: 5HT-2A Binding IC50
# Chain of 5-HT2A receptor (P28223 whole entry): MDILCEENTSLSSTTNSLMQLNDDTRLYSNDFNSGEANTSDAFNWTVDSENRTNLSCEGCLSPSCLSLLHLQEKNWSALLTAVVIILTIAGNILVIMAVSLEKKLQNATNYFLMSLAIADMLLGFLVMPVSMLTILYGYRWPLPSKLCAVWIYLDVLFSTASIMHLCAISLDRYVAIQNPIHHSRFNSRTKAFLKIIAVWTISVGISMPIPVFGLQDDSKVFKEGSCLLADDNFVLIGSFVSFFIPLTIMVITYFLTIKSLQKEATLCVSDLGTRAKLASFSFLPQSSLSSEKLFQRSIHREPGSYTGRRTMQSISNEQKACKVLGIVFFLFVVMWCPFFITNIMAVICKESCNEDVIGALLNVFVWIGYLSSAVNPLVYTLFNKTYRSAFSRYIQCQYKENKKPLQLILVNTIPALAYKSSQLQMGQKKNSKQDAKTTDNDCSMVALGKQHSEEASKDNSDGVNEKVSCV
# rats = assay: Pharmacodynamic model of active escape experiment in rats; type: in vivo; conditions: F344 rats, oral, Dose 1 mg/kg, one hour before the test; Vehicle 91-98%
# Description: To evaluate the anti-schizophrenic effect of the compounds using the pharmacodynamic model of the active escape experiment in rats.
# A certain mass (such as 1.0 g) of CMC-Na was weighed into a glass bottle. A certain volume (such as 200 mL) of purified water was added. The resulting mixture was stirred to disperse evenly. 1% (v/v) Tween 80 was added according to the solution volume, and the resulting mixture was stirred overnight to obtain a homogeneous clear solution, which was stored at 2 to 8°C for later use.
# A prescription amount of the compound was weighed, followed by the addition of a prescription volume of 0.5% CMC-Na+1% Tween 80 solution. […]
# The actual sample amount needs to be calculated during the formulation and administration of the compound solution. […]
# The current intensity was 0.6 mA and the duration was 10 seconds. […] This would be recorded as escape failures, and the single training ended; • 5.1.5 Each animal was trained 30 times a day for a total of 6 days, and returned to the cage after the training. • 5.2 Baseline test and grouping […]
# The following data was collected by the software for data analysis: • Number of avoids of the animal; • Number of escape failures of the animal; • Escape latency of the animal; • All measurement data were expressed as mean ± standard error (Mean ± SEM), and analyzed by Graphpad 6 statistical software. […]
Compound,IC50 (dopamine D3 receptor) [nM],IC50 (5-HT2A receptor) [nM],CAR value (rats) [%]
"O=C(N[C@H]1C[C@H](CCN2CCN(c3cccc(Cl)c3Cl)CC2)C1)c1cccc2ncccc12 [Example 19A, N-(Trans-3-(2-(4-(2,3-dichlorophenyl)piperazin-1-yl)ethyl)cyclobutyl)quinoline-5-c arboxamide]",0.4,1.89,
"O=C(N[C@H]1C[C@H](CCN2CCN(c3cccc(Cl)c3Cl)CC2)C1)c1ncco1 [Example 12A, N-(Trans-3-(2-(4-(2,3-dichlorophenyl)piperazin-1-yl)ethyl)cyclobutyl)oxazole-2-car boxamide]",0.37,4.19,18.5
"O=C(NC1CC(CCN2CCN(c3cccc(Cl)c3Cl)CC2)C1)c1ncco1 (stereo not drawn) [Example 12, N-(3-(2-(4-(2,3-Dichlorophenyl)piperazin-1-yl)ethyl)cyclobutyl)oxazole-2-carboxamide]",,,30

# More lines, main results first:
IC50 (dopamine D3 receptor) [nM],IC50 (5-HT2A receptor) [nM],Compound,CAR value (rats) [%]
0.44,0.79,"O=C(N[C@H]1C[C@H](CCN2CCN(c3cccc(Cl)c3Cl)CC2)C1)c1nccs1 [Example 7A, N-(Trans-3-(2-(4-(2,3-dichlorophenyl)piperazin-1-yl)ethyl)cyclobutyl)thiazole-2-car boxamide]",
0.75,5.77,"O=C(N[C@H]1C[C@H](CCN2CCN(c3cccc(Cl)c3Cl)CC2)C1)C1(O)CC1 [Example 6A, N-(Trans-3-(2-(4-(2,3-dichlorophenyl)piperazin-1-yl)ethyl)cyclobutyl)-1-hydroxycy clopropane-1-carboxamide]",
2.54,8.73,"O=C(N[C@H]1C[C@@H](CCN2CCN(c3cccc(Cl)c3Cl)CC2)C1)c1ncco1 [Example 12B, N-(Cis-3-(2-(4-(2,3-dichlorophenyl)piperazin-1-yl)ethyl)cyclobutyl)oxazole-2-carbo xamide]",
